Assay results published in a melting point compilation (Tetko et al.; mined from patent text by program, amines drawn as free bases though some values may be those of a salt).

SMILES	melting point
CNC(=O)c1cc(C#N)cc(C)c1NC(=O)c1cc(C(F)(F)F)nn1-c1ncccc1Cl	214 to 216 °C
COC(=O)C(O)=Cc1ncc(Cc2ccc(F)cc2)cn1	132 to 134 °C
NC(=O)N(O)CC=Cc1cccc(F)c1Sc1ccc(F)cc1	127 to 128 °C
Cc1ncsc1NC(=O)Nc1ccc(-n2nc(C(F)(F)F)cc2C2CC2)cc1	124 to 126 °C
COc1cc(N)c(I)cc1C(=O)O	181 °C
O=[N+]([O-])c1cc(-c2cn3c(n2)sc2ccccc23)cc(O)c1O	303 to 305 °C
CC1(c2nc(-c3ccc(Cl)cc3)c(CCC(=O)O)o2)CCCCC1	138 to 139 °C
CC(C)NCc1ccc(COc2cccc3c2CN(C2CCC(=O)NC2=O)C3=O)cc1 (centres undefined)	165 to 167 °C
COC(=O)c1nc(-c2ccc(Cl)c(OC)c2F)cc(N)c1Cl	141 to 143 °C
COc1ccc(COc2cncc3c2C(=O)c2c(NCCN(C)C)ccc(Cl)c2C3=O)cc1	127 to 128 °C
O=C(NC1CC1)c1ccc2c(=O)nc(-c3ccccn3)sc2c1	272 to 274 °C
CN1CCN(Cc2ccc3c(=O)n(CCCCN4CC=C(c5ccccc5)CC4)c(=O)[nH]c3c2)CC1	167 to 168 °C
CC(OS(=O)(=O)C(F)(F)F)=C(C(=O)OCc1ccccc1)N1C(=O)[C@@H](N2C(=O)c3ccccc3C2=O)[C@H]1COS(C)(=O)=O	51 to 55 °C
Cc1ccc(S(=O)(=O)NC(=O)CC(=O)N2CCCC2C(=O)N2CCN(C3(N4CCCC4)N=CC=C(N4CCCC4)N3)CC2)cc1 (single isomer, unassigned; (-))	170 °C
CCCCN(CCCC)c1ccc(C=C(S(C)(=O)=O)S(C)(=O)=O)cc1	114 to 115 °C
Cc1cnnc2c1C(=O)CC(c1cc(Cl)ccc1F)C2 (centres undefined)	124 to 125 °C
COc1cc2c(cc1OC)CN(c1nc(N)c3cc(OC)c(OC)cc3n1)CCC2	122 to 124 °C
COc1cc(F)ccc1C(=O)NCCN1CCC(n2c(=O)[nH]c3cc(Cl)ccc32)CC1	227 °C
COc1ccc(-n2nc(Sc3ccc(-c4ccccc4)cc3)c(C)c(C#N)c2=O)cc1	205 to 207 °C
CCOC(=O)COc1ccc(C2=NNC(=O)NC2C)cc1 (centres undefined)	152 to 153 °C
Cc1cccc(-c2n[nH]cc2-c2ccc(F)c(-c3c[nH]c(CCO)n3)c2)n1	219 to 220 °C
COc1ccc2c(c1)C(CCCN1C(=O)c3ccccc3C1=O)=CCO2	78 to 80 °C
CCN(CC)CCNC(=O)c1cc(Cl)c(N)cc1OCCS(=O)CC (centres undefined)	92 to 94 °C
CCN1C(=O)CN=C(c2ccccc2F)c2cc(C(C)=NO)ccc21	236 to 238 °C

SMILES	melting point
O=C(NCCCCc1ccc(-c2ccc(=O)[nH]n2)cc1)c1cccnc1	190 to 191 °C
O=C(c1ccc(F)cc1)C1(c2ccccc2)CCN(Cc2ccccc2)CC1	148 °C
COC(=O)c1ccc(Cn2nc(Br)c3ccc(C(=O)NCC4CCCC4)cc32)c(OC)c1	161 to 162 °C
COc1ccc(Cl)cc1NC(=O)[C@H]1[C@H](c2ccc(S(N)(=O)=O)cc2)C12CCCCC2 (relative stereo)	118 to 121 °C
Nc1ncnc2c1cnn2Cc1oc2ccc(Br)cc2c(=O)c1-c1ccccc1	236 to 240 °C
CCCc1c(O)c(C(C)=O)cc2ccc(C(=O)OC)nc12	110 to 111 °C
COc1cc(NC(=O)NC(=O)c2c(F)cccc2F)ccc1OC(F)(F)C(F)(F)c1ccc(Cl)cc1	133 to 134 °C
CCc1nc(N)nc(N)c1-c1ccc(Cl)c(N=NN(CCO)C(C)(C)C)c1	224 to 225 °C
N#Cc1ccc(O)c(Cc2cc(F)cc(Cc3cc(C#N)ccc3O)c2O)c1	222 °C
COc1cccc2c1CCc1c-2occ(C=O)c1=O	201 to 202 °C
COc1ccc(O[C@@H]2CN(Cc3ccccc3)C[C@H]2O)cc1 (relative stereo)	84 to 85 °C
COc1ccccc1CN[C@H]1CCCN(CCCCCC(=O)O)[C@H]1c1ccccc1 (relative stereo)	53 to 65 °C
CCCCCCCCCCCC(=O)c1ccc(CCOC(C)=O)cc1	32 to 33 °C
COC(=O)Cn1c(C(=O)Nc2nc(-c3cc(OC)c(Cl)cc3OC)c(CCC3CCCCC3)s2)c(C)c2cc(C)ccc21	166 to 168 °C
C#Cc1cn(-c2c(Cl)cc(C(F)(F)F)cc2Cl)nc1C(F)(F)F	95 to 98 °C
CC(=O)Nc1ccc(S(=O)(=O)Nc2ccn(C3CC3)c(=O)n2)cc1	139 to 143 °C
O=C1c2ccc(Cl)cc2CC1Sc1ccccc1 (centres undefined)	89 °C
O=C(OCc1ccccc1)N1CCC2(CC1)CC(=O)N(O)C2=O	131 to 132 °C
CC(=O)c1ccc(N(C2CC2)S(=O)(=O)c2cccc(C(=O)Nc3ccc(C#N)cc3)c2)cc1	185 to 186 °C
CC(C)(c1ccccc1)c1cccc(S(=O)(=O)NC(CCCNC(=N)N)C(=O)N2CCC(CC(=O)O)CC2)c1 (centres undefined)	188 to 191 °C
CNC(=S)C1=CC2(CCOCC2)Oc2ccc([N+](=O)[O-])cc21	223 to 225 °C
CC(C)(C)OC(=O)CN1C(=O)C(NC(=O)Nc2cccc(Cl)c2)CC(c2ccccc2)CC1Cc1ccccc1 (centres undefined)	95 to 110 °C
CCc1nc(C)cn1-c1cc2c(cc1C(F)(F)F)[nH]c(=O)c1nnc(CP(=O)(O)O)n12	> 300 °C

The remaining lines, values ahead:

melting point	SMILES
205 to 208 °C	Cc1ncc(CN2CCc3cc(-c4ccc(Cl)cc4)ccc3C2)c(N)n1
163 to 165 °C	N=C(Nc1ccccc1)Nc1ncccc1OCc1c(Cl)cccc1Cl
185 to 187 °C	Cc1[nH]c(=O)ccc1C(=O)c1ccccc1
141 to 143 °C	Cc1c(CN(CCc2c(I)c3ccccc3n2C)C(=O)C(F)(F)F)ncn1S(=O)(=O)N(C)C
191 to 193 °C	O=C1COc2cc(CN3CCN(c4ccccc4)CC3)ccc2N1
126 to 127 °C	CC12CCC3c4ccc(OCc5ccccc5)cc4CCC3C1CCC2=O (centres undefined)
88 to 91 °C	CON(C)C(=O)Nc1ccc(CN2OCCC(C)(SC)C2=O)c(Cl)c1 (centres undefined)
188 to 189 °C	CS(=O)(=O)c1ccc(-c2sc(-c3ccccc3)nc2-c2ccc(F)cc2)cc1
102 to 103 °C	Cc1cc2c(cc1OC(=S)N(C)C)C(C)(C)CCC2(C)C
185 °C	O=C(c1ccc(F)c(Cc2ccc(=O)[nH]n2)c1)c1c(Cl)cc(Cl)cc1Cl
159 to 161 °C	CCNc1nc2ccc(CCc3cn4c(n3)CC(C)CC4)cc2o1 (centres undefined)
80 to 89 °C	CCOC(=O)C(C(=O)C(C)C)C(CC(=O)C(C)(C)C)c1ccc(F)cc1 (centres undefined)
97 to 100 °C	CC(C(=O)N1CCCC1C(=O)O)N(C(=O)C(NC(=O)c1ccccc1)SC(=O)c1ccccc1)C(C)(C)C (centres undefined)
200 to 201 °C	Cc1cc(C)c(Nc2nc(C)ccc2S(=O)(=O)c2ccc(OCc3csc(C)n3)cc2)c(C)c1
100 to 102 °C	C#CCC(C1=Nc2cnccc2C(=O)C1Nc1ccccc1)N(CCCNC(=O)OCc1ccccc1)C(=O)c1cccc(Cl)c1F (centres undefined)
185 to 188 °C	CCOc1ccc(C(=O)O)c(Cl)n1
146 to 149 °C	CCOC(=O)C1(Cc2ccc(OC)c(OC)c2)C(=O)NCC1c1ccc(OC)c(OC)c1 (centres undefined)
112 °C	COC(=O)c1cc(N)c(C)c(-n2cccc2)c1
239 °C	O=C1NCC(=O)c2c(ncn2C2OC(COC(=O)c3ccccc3)C(OC(=O)c3ccccc3)C2OC(=O)c2ccccc2)N1 (centres undefined)
53 to 57 °C	COc1nccc2c(N)cccc12
153 to 155 °C	O=C(c1cc(Br)ccc1[N+](=O)[O-])C(Br)C(Br)c1cccc(Br)c1 (centres undefined)
110 °C	CCCCc1oc2ccc(NS(=O)(=O)c3ccc(C)cc3)cc2c1C(=O)c1ccc(OCCCN(CCCC)CCCC)cc1
103 to 105 °C	CC(C)c1nc(CC#N)n(C)c1Sc1cc(Cl)cc(Cl)c1
127 to 129 °C	NCCNC(=O)CC(CO)c1c(Cl)cccc1Cl (centres undefined)

melting point	SMILES
178 to 180 °C	NC(=NOC1CCCCO1)Nc1c(Cl)cccc1Cl (centres undefined)
258 to 261 °C	Cc1cc2n(n1)-c1ccc(Cl)cc1C(c1ccccc1)NC2=O (centres undefined)
143 to 146 °C	CNc1cccc2c(=O)c(C)c(-c3ccccc3)oc12
96 to 98 °C	CON(C(=O)c1cccnc1Cl)C1CCCCC1
197 to 198 °C	CN(C)c1ccc(/C=C/c2ccc(F)cc2)cc1
275 to 279 °C	O=[N+]([O-])c1ccc2c(c1)S(=O)(=O)c1cc(F)ccc1-2
183 to 185 °C	Cc1nc2cnc3ccccc3c2n1Cc1ccc(Cl)cc1
188 to 190 °C	CC1(C)CC(OC(=O)Nc2ccccc2)CC(C)(C)N1OC(=O)Nc1ccccc1
164 to 165 °C	CC(C)(C)OC(=O)N=C(c1ccc(C(=O)Nc2ccc(C(=O)NCCC(=O)OCc3ccccc3)cc2)cc1)N(C(=O)OC(C)(C)C)C(=O)OC(C)(C)C
114 to 115 °C	CCCN(CCC)CCCC1CCN(CCNC(=O)N2c3ccccc3NC(=O)c3csc(C)c32)CC1
280 to 282 °C	Cc1cccc(Nc2c(N)cc(C(=O)O)cc2S(N)(=O)=O)c1
103 to 109 °C	COc1cc(C(=O)O)ccc1Cc1cn(C)c2ccc(CC(C)C(=O)NCC3CCCC3)cc12 (centres undefined)
43 to 44 °C	COc1ccc2c(N(C)CCN3CCOCC3)noc2c1
189 to 199 °C	O=C1CCc2c(ccc3cc(O)ccc23)O1
116 to 117 °C	CNc1c2c(nc3ccccc13)CCCC2=O
> 295 °C	O=C(O)c1ccc(=O)n(CCNC(=O)c2cccnc2)c1
178 to 180 °C	CC(=O)NC[C@H]1CC[C@H](C(=O)c2cc3c4c(c2)CCN4C(=O)CC3)CC1
104 to 107 °C	COC(=O)c1ccc(NCc2ccccc2)cn1
227 °C	Cc1nc2n(c(=O)c1CCN1CCC(c3c[nH]c4ccccc34)CC1)CCCS2
62 to 66 °C	CO[C@]1(c2cccc(OCc3ccc4c(ccc(=O)n4C)c3)c2)CCOC[C@H]1O (racemic)
140 to 142 °C	CCN1CCN(Cc2nc3sc4c(c3c(=O)n2-c2ccccc2Cl)CCCC4)CC1
59 to 61 °C	CCOC(=O)c1c(C)nc(N2CCN(C)CC2)c([N+](=O)[O-])c1Cl
141 °C	O=Cc1ccc(I)nc1
